This note sets out measurements from patent US9980943B2, “Methods of treating muscular dystrophy” (BOARD OF REGENTS OF THE NEVADA SYSTEM OF HIGHER EDUCATION, …, priority 2013, dated 2018).

What all share (type): cell-based, mouse
In test [1] the test system is α7 integrin (LacZ reporter in α7+/LacZ myotubes). In words: Myotube α7 integrin FDG assay (Burkin assay in myotubes, 96-well). The following applies: myotubes.
Test [2] deals with α7 integrin (LacZ reporter in α7βgal+/− myoblasts). Briefly: Myoblast α7+/LacZ integrin FDG assay (Burkin assay in myoblasts, 96-well). The following applies: α7+/LacZ myoblasts, 96-well.
Test [3] has as its system β-galactosidase in CMV-LacZ C2C12 myotubes. In words: CMV-LacZ secondary screen in C2C12 myotubes (β-Gal stabilizing assay). The following applies: for CMV-LACZ in Myotubes, signal relative to DMSO: C2C12 CMV-LacZ myotubes, fold relative to DMSO; for CMV-LACZ in Myotubes (β-galactosidase activity relative to DMSO): CMV-LacZ C2C12 myotubes, 96-well format. The method in brief:
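CMV-LacZ C2C12 line (clonal, FDG-screened); myoblasts/myotubes dosed 0.5–40 μM (0.5, 1, 5, 10, 20, 40 μM); n=2 per point; β-gal stabilization read-out.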

As to `CC1(C)CC(=O)C=C(Nc2ccc(C(=O)O)c(O)c2)C1` [MLS001198693-01], the “Burkin Assay in Myotubes, α7 integrin LacZ reporter signal relative to DMSO” value in test [1] (0.5 uM) is 0.96; in test [1] (1 uM), 0.9048; in test [1] (5 uM) it was 1.011; in test [1] (10 uM) it was 0.9514; in test [1] (20 uM) it was 0.9319; in test [1] (40 uM), 1.116. The “Burkin Assay in Myoblasts, signal relative to DMSO” value in test [2] (0.5 uM) is recorded as 0.9617; in test [2] (1 uM), 0.5426; in test [2] (5 uM), 0.9229; in test [2] (10 uM), 0.9137; in test [2] (20 uM), 0.9351; in test [2] (40 uM) it was 0.9164. The “CMV-LACZ in Myotubes, signal relative to DMSO” value in test [3] (5 uM) is 1.092; in test [3] (10 uM), 0.9258; in test [3] (20 uM), 1.025; in test [3] (40 uM), 1.112.

As for `COc1ccc(C(=O)N/C(=C/c2cccnc2)C(=O)N2CCN(C)CC2)cc1OC` [MLS001140657-01], the “Burkin Assay in Myotubes (signal relative to DMSO)” value was determined as 1.034 in test [1] (0.5 uM); 0.9506 in test [1] (1 uM); 1.083 in test [1] (5 uM); 0.9981 in test [1] (10 uM); 0.9948 in test [1] (20 uM); 0.9708 in test [1] (40 uM). In addition, the “Burkin Assay in Myoblasts, value relative to DMSO” value is listed as 0.9918 in test [2] (0.5 uM); 0.962 in test [2] (1 uM); 0.9528 in test [2] (5 uM); 0.8768 in test [2] (10 uM); 0.8568 in test [2] (20 uM); 0.7978 in test [2] (40 uM). Besides, the “CMV-LACZ in Myotubes (β-galactosidase activity relative to DMSO)” value was 1.053 in test [3] (5 uM), 1.046 in test [3] (10 uM), 1.05 in test [3] (20 uM) and 1.075 in test [3] (40 uM).

With `COc1cc(NC(=O)CN(C)S(=O)(=O)c2ccc3c(c2)CC(C)N3C(C)=O)cc(OC)c1OC` (stereo not drawn) [MLS001122792-01], the “Burkin Assay in Myotubes (signal relative to DMSO)” value in test [1] (0.5 uM) is 1.192; in test [1] (1 uM) it was 1.032; in test [1] (5 uM), 1.102; in test [1] (10 uM), 0.6414; in test [1] (20 uM), 1.068; in test [1] (40 uM), 0.8522. Also, the “Burkin Assay in Myoblasts, value relative to DMSO” value in test [2] (0.5 uM) is reported as 0.9702; in test [2] (1 uM), 0.8787; in test [2] (5 uM) it was 0.913; in test [2] (10 uM) it was 0.8643; in test [2] (20 uM) it was 0.9989; in test [2] (40 uM), 0.8058. The “CMV-LACZ in Myotubes, signal relative to DMSO” value is recorded as 0.8137 in test [3] (5 uM), 0.9675 in test [3] (10 uM), 0.9969 in test [3] (20 uM) and 0.7254 in test [3] (40 uM).
